Measured values published in ChEMBL document CHEMBL1201862, “PubChem BioAssay data set” (2004).
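Interpolation was linear, between the two tested concentrations surrounding the appropriate level; five concentrations were tested over 48 hours in 96-well plates. Abbreviation: GI50, concentration required for 50% inhibition of growth.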 Calls of active or inactive are those of the source. No stated cut-off is given here; in the data, active = GI50 up to about 1.1 µM and inactive = higher.

Experiments:
Assay in all cases: NCI anticancer screen, dose series, 48 h
[1] = system: SF-539
[2] = system: SK-OV-3
[3] = system: LOX IMVI
[4] = system: HL-60
[5] = system: SW-620
[6] = system: U-251
[7] = system: OVCAR-5
[8] = system: SK-MEL-28
[9] = system: NCI-H522
[10] = system: NCI-H226
[11] = system: SF-295
[12] = system: UO-31
[13] = system: A549
[14] = system: OVCAR-8
[15] = system: MOLT-4
[16] = system: HCT-116
[17] = system: OVCAR-4

Structure (SMILES) | GI50 [1] | GI50 [2] | GI50 [3] | GI50 [4] | GI50 [5] | GI50 [6] | GI50 [7] | GI50 [8] | GI50 [9] | GI50 [10] | GI50 [11] | GI50 [12] | GI50 [13] | GI50 [14] | GI50 [15] | GI50 [16] | GI50 [17]
NNC(=O)N/N=C1/C(=O)N(c2ccc(Cl)c(Cl)c2)C(=O)C(=O)C1c1nc2ccccc2o1 (stereo unspecified) | > 100 µM (inactive) | > 100 µM (inactive) | > 100 µM (inactive) | 42.9 µM (inactive) | > 100 µM (inactive) | > 100 µM (inactive) | > 100 µM (inactive) | > 100 µM (inactive) | 62.4 µM (inactive) | > 100 µM (inactive) | > 100 µM (inactive) | > 100 µM (inactive) | > 100 µM (inactive) | > 100 µM (inactive) | 78.9 µM (inactive) | > 100 µM (inactive) | > 100 µM (inactive)
Cc1oc2c(C)c3oc(=O)cc(C)c3cc2c1CN1C(=O)C2OCCOCCOCCOCCOCCO[C@H]2C1=O (stereo partly specified) | > 100 µM (inactive) | > 100 µM (inactive) | > 100 µM (inactive) | > 100 µM (inactive) | > 100 µM (inactive) | > 100 µM (inactive) | > 100 µM (inactive) | – | > 100 µM (inactive) | > 100 µM (inactive) | > 100 µM (inactive) | > 100 µM (inactive) | > 100 µM (inactive) | > 100 µM (inactive) | > 100 µM (inactive) | > 100 µM (inactive) | > 100 µM (inactive)
C=C(C)C(=O)OC1C/C(CO)=C\C(O)C/C(C)=C/C2OC(=O)C(=C)C21 (stereo unspecified) | 21 µM (inactive) | > 100 µM (inactive) | 18.5 µM (inactive) | – | 16.7 µM (inactive) | > 100 µM (inactive) | 45.8 µM (inactive) | 17.3 µM (inactive) | 12.8 µM (inactive) | 27.8 µM (inactive) | > 100 µM (inactive) | > 100 µM (inactive) | 64.4 µM (inactive) | 20.3 µM (inactive) | 21.3 µM (inactive) | 17.5 µM (inactive) | 25.9 µM (inactive)
CNS(=O)(=O)NNS(=O)(=O)c1ccc(C)cc1 | > 100 µM (inactive) | > 100 µM (inactive) | – | > 100 µM (inactive) | > 100 µM (inactive) | – | > 100 µM (inactive) | > 100 µM (inactive) | > 100 µM (inactive) | – | > 100 µM (inactive) | > 100 µM (inactive) | > 100 µM (inactive) | > 100 µM (inactive) | > 100 µM (inactive) | > 100 µM (inactive) | > 100 µM (inactive)
CCCCCCCC(=O)OC(COC(=O)Cc1ccccc1)COC(=O)C(C)(C)C (stereo unspecified) | – | > 100 µM (inactive) | > 100 µM (inactive) | 51.6 µM (inactive) | > 100 µM (inactive) | > 100 µM (inactive) | > 100 µM (inactive) | > 100 µM (inactive) | – | > 100 µM (inactive) | > 100 µM (inactive) | > 100 µM (inactive) | > 100 µM (inactive) | > 100 µM (inactive) | 71.9 µM (inactive) | > 100 µM (inactive) | > 100 µM (inactive)
Cc1cccc(C)c1NC(=O)CCCC(=O)CC(=O)/C=C/c1ccccc1 | > 100 µM (inactive) | > 100 µM (inactive) | > 100 µM (inactive) | – | > 100 µM (inactive) | > 100 µM (inactive) | > 100 µM (inactive) | > 100 µM (inactive) | > 100 µM (inactive) | – | – | > 100 µM (inactive) | > 100 µM (inactive) | > 100 µM (inactive) | > 100 µM (inactive) | > 100 µM (inactive) | > 100 µM (inactive)
CN(C)CCC1(C2=CCCC2)CC/C(=C\c2ccc3c(c2)OCO3)C1=O (stereo unspecified) | 16 µM (inactive) | – | – | 14.3 µM (inactive) | 15.8 µM (inactive) | 15.6 µM (inactive) | 15.8 µM (inactive) | 14.3 µM (inactive) | – | – | 16 µM (inactive) | 7.52 µM (inactive) | 16 µM (inactive) | 15.6 µM (inactive) | 12.3 µM (inactive) | 13.2 µM (inactive) | 13.5 µM (inactive)
COc1ccccc1NC(=O)CSC(N)=O | 34 µM (inactive) | > 100 µM (inactive) | 36.4 µM (inactive) | 0.349 µM (active) | 32.2 µM (inactive) | 25.6 µM (inactive) | > 100 µM (inactive) | 48.1 µM (inactive) | 33.4 µM (inactive) | 39.2 µM (inactive) | 38.4 µM (inactive) | – | 72.6 µM (inactive) | 68.2 µM (inactive) | – | 18.8 µM (inactive) | > 100 µM (inactive)
Cc1ccc2nc(/C(=C/c3ccc(/C=C(\NC(=O)c4ccccc4)c4nc5ccc(C)cc5[nH]4)c(C)c3)NC(=O)c3ccccc3)[nH]c2c1 | 10.2 µM (inactive) | 13.7 µM (inactive) | – | – | 5.92 µM (inactive) | 22.7 µM (inactive) | 19.6 µM (inactive) | 25.2 µM (inactive) | 22.2 µM (inactive) | 26.4 µM (inactive) | – | 9.12 µM (inactive) | 6.14 µM (inactive) | 7.01 µM (inactive) | 0.383 µM (active) | 18.1 µM (inactive) | –
O=C1N[C@@H]2CCCC[C@@H]2C12CCCCC2 | > 100 µM (inactive) | > 100 µM (inactive) | > 100 µM (inactive) | > 100 µM (inactive) | > 100 µM (inactive) | > 100 µM (inactive) | > 100 µM (inactive) | > 100 µM (inactive) | – | > 100 µM (inactive) | > 100 µM (inactive) | > 100 µM (inactive) | > 100 µM (inactive) | > 100 µM (inactive) | > 100 µM (inactive) | > 100 µM (inactive) | > 100 µM (inactive)
C#CCC[C@@H]1O[C@@]1(C)CC/C=C(\C)CC/C=C/C=O | 18.2 µM (inactive) | > 100 µM (inactive) | 18.4 µM (inactive) | 23.9 µM (inactive) | 23.3 µM (inactive) | 22 µM (inactive) | > 100 µM (inactive) | – | – | 60.3 µM (inactive) | 26.5 µM (inactive) | 35.8 µM (inactive) | 43.6 µM (inactive) | 18.6 µM (inactive) | 22.4 µM (inactive) | – | –
CCN(CC)c1ccc(/N=N\c2ccc(-c3nc4ccc[n+](C)c4s3)cc2)cc1 | 11 µM (inactive) | 16.1 µM (inactive) | 0.423 µM (active) | 1.77 µM (inactive) | 4.75 µM (inactive) | 4.07 µM (inactive) | 17.1 µM (inactive) | – | 3.06 µM (inactive) | 6.5 µM (inactive) | 17.8 µM (inactive) | 22.8 µM (inactive) | 4.2 µM (inactive) | 8.57 µM (inactive) | 2.84 µM (inactive) | 3.53 µM (inactive) | 6.5 µM (inactive)
Cn1c(=O)c2nc3c4ccccc4c(=O)n(C)c3nc2n(C)c1=O | > 100 µM (inactive) | > 100 µM (inactive) | – | – | > 100 µM (inactive) | > 100 µM (inactive) | > 100 µM (inactive) | > 100 µM (inactive) | – | > 100 µM (inactive) | > 100 µM (inactive) | > 100 µM (inactive) | > 100 µM (inactive) | > 100 µM (inactive) | > 100 µM (inactive) | > 100 µM (inactive) | –
